Measurements reported in paper PMC9950447, “Targeting USP10 induces degradation of oncogenic ANLN in esophageal squamous cell carcinoma” (Cell Death and Differentiation, 2022).

B1: His-ANLN amino acids 1-454 (domain or fragment, human, UniProt Q9NQW6 1-454, looked up)
chain: MDPFTEKLLERTRARRENLQRKMAERPTAAPRSMTHAKRARQPLSEASNQQPLSGGEEKSCTKPSPSKKRCSDNTEVEVSNLENKQPVESTSAKSCSPSPVSPQVQPQAADTISDSVAVPASLLGMRRGLNSRLEATAASSVKTRMQKLAEQRRRWDNDDMTDDIPESSLFSPMPSEEKAASPPRPLLSNASATPVGRRGRLANLAATICSWEDDVNHSFAKQNSVQEQPGTACLSKFSSASGASARINSSSVKQEATFCSQRDGDASLNKALSSSADDASLVNASISSSVKATSPVKSTTSITDAKSCEGQNPELLPKTPISPLKTGVSKPIVKSTLSQTVPSKGELSREICLQSQSKDKSTTPGGTGIKPFLERFGERCQEHSKESPARSTPHRTPIITPNTKAIQERLFKQDTSSSTTHLAQQLKQERQKELACLRGRFDKGNIWSAEKGG
notes: also called His-ANLN mutant

How the values were obtained:
USP10 = target: T1, USP10 (Homo sapiens, UniProt Q14694); test: SPR (Biacore T200, His-USP10 immobilized on CM5 chip); supported by Ub-AMC inhibition of purified USP10 (IC50 […]); type: binding
T1 construct: His-USP10
T1 sequence (Q14694 2-798): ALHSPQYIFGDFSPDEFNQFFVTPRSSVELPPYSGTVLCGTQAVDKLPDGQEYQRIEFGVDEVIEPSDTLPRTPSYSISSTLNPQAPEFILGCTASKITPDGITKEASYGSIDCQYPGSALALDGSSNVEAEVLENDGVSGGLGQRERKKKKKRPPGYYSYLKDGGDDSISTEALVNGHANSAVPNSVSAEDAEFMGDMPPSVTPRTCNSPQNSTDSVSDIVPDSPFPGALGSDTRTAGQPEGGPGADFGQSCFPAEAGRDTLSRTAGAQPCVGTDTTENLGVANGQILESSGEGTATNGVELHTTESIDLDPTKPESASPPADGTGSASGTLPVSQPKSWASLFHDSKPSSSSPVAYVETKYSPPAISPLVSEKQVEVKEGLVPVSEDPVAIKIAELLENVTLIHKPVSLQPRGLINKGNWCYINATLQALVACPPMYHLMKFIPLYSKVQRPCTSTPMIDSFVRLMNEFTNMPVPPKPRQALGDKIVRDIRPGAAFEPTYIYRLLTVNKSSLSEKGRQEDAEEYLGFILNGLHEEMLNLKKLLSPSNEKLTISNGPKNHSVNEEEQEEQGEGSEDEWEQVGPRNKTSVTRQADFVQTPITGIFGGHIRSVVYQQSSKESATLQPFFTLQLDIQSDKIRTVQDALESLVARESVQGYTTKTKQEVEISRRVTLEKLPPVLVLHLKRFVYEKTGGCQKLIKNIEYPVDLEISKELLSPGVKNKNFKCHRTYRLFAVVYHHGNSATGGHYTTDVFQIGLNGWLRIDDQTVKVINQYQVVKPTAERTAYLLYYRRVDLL

recombinant GST-USP10 = recombinant GST-USP10 (human, UniProt Q14694-3 1-802); test: pull-down; in vitro GST pull down: GST-tagged protein bound to GST Bind Resin in GST lysis buffer, His-tagged proteins added, 4 °C for 4 h, six washes with PBST, western blot; conditions: both partners purified
recombinant GST-USP10, sequence (Q14694 other isoform, or with tags, fused parts or gaps): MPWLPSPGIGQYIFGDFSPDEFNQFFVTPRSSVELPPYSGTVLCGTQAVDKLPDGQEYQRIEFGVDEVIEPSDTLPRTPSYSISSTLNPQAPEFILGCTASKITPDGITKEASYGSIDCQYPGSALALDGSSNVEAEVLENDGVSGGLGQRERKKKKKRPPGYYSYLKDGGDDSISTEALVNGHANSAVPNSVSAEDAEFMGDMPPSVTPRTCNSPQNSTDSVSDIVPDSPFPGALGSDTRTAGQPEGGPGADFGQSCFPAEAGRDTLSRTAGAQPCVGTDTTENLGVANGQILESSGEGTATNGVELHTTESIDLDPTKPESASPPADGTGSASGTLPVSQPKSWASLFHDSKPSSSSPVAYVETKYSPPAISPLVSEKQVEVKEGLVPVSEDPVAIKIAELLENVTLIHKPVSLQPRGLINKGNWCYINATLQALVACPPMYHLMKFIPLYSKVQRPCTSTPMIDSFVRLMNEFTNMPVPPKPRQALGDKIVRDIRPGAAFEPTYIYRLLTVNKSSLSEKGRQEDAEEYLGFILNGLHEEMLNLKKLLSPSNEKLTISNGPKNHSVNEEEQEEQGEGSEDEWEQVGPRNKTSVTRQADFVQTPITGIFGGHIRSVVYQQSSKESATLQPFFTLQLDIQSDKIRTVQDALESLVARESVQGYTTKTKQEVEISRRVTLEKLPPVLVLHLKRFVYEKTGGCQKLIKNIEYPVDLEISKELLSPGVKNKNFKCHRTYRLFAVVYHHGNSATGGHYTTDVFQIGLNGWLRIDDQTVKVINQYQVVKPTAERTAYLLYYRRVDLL

Molecule | Kd (USP10) | binding result (recombinant GST-USP10)
CC1=C[C@H](C)C[C@H](C)[C@H](Cc2cnco2)OC(=O)/C(C)=C\[C@H](C)C[C@H](C)[C@H](Cc2cnco2)OC1=O [F806, FW-04-806] | ~27.5 µM | –
B1 | – | binds
